From US9765075B2, “Substituted bridged urea analogs as sirtuin modulators” (GLAXOSMITHKLINE LLC, priority 2013, dated 2017)

Target: T1, SIRT1 (Homo sapiens, UniProt Q96EB6)
T1 sequence (Q96EB6 1-747): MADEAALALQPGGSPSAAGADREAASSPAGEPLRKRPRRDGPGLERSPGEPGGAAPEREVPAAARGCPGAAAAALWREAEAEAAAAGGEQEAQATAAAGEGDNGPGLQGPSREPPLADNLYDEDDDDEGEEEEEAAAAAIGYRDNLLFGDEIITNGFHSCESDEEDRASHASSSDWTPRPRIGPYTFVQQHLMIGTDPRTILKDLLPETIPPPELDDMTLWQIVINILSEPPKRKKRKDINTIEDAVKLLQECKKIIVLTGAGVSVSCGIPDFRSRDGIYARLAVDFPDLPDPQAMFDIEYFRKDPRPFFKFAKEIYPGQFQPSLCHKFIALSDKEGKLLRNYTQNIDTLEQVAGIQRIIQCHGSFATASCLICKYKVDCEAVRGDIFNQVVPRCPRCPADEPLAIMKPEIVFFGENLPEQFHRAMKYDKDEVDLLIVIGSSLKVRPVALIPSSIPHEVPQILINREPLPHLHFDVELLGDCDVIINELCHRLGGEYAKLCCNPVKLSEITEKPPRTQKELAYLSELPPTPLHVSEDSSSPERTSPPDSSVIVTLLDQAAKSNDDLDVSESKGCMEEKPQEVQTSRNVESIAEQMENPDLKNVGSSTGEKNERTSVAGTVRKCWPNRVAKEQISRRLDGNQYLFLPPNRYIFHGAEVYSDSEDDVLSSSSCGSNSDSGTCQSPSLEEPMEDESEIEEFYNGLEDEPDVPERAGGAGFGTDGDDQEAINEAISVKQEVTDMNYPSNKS
Test: Trp mass spectrometry assay (SIRT1 activation)
Type: biochemical
Settings: Trp peptide substrate; for Tryp AVG EC1.5 (μM): concentration of test compound that results in 150% activation of SIRT1; for Emax: percent maximum fold activation of SIRT1, read-out: Tryp % Fold Act
Procedure, shortened: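 N-His-tagged SIRT1 (10 nM), expressed in E. coli, was incubated with 0.5 μM Ac-RHKK(Ac)W-NH2 peptide and 120 μM NAD+ for 25 min at 25 °C in HEPES pH 7.5 with […]. The reaction was stopped with formic acid and O-acetyl-ADP-ribose or deacetylated peptide was quantified by mass spectrometry. Results are given as EC1.5 and percent maximal activation relative to DMSO control.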

SMILES | Tryp AVG EC1.5 (μM) | Emax [%]
O=C(Nc1cccnc1)N1c2nc(N3CCCC(C(F)(F)F)C3)ccc2N2CC[C@H]1C2 (some centres unmarked) [Example 229] | B (EC1.5 1-25 μM) | ≥ 150
Cc1cncc(NC(=O)N2c3nc(N4CCCC(C(F)(F)F)C4)ccc3N3CC[C@H]2C3)c1 (some centres unmarked) [Example 230] | A (EC1.5<1 μM) | ≥ 150
Cc1cc(NC(=O)N2c3nc(N4CCCC(C(F)(F)F)C4)ccc3N3CC[C@H]2C3)cc(C)n1 (some centres unmarked) [Example 231] | B (EC1.5 1-25 μM) | ≥ 150
O=C(Nc1cncc(F)c1)N1c2nc(N3CCCC(C(F)(F)F)C3)ccc2N2CC[C@H]1C2 (some centres unmarked) [Example 232] | B (EC1.5 1-25 μM) | ≥ 150
O=C(Nc1cccc(-c2cnco2)c1)N1c2nc(-c3cccc(C(F)(F)F)c3)ccc2N2CC[C@@H]1C2 [Example 233] | A (EC1.5<1 μM) | ≥ 150
O=C(Nc1cccc(-c2cnco2)c1)N1c2nc(-c3cccc(Cl)c3)ccc2N2CC[C@@H]1C2 [Example 235] | A (EC1.5<1 μM) | ≥ 150
Cc1ccc(-c2ccc3c(n2)N(C(=O)Nc2cnccn2)[C@H]2CCN3C2)cn1 [Example 236] | B (EC1.5 1-25 μM) | ≥ 150
Cc1cc(-c2ccc3c(n2)N(C(=O)Nc2cncc(F)c2)[C@H]2CCN3C2)ccn1 [Example 238] | B (EC1.5 1-25 μM) | ≥ 150
COc1cc(NC(=O)N2c3nc(-c4ccnc(C)c4)ccc3N3CC[C@H]2C3)ncn1 [Example 240] | B (EC1.5 1-25 μM) | ≥ 150
CN(C)[C@H]1CCN(c2ccc3c(n2)N(C(=O)Nc2cccnc2)[C@H]2CCN3C2)C1 [Example 242] | B (EC1.5 1-25 μM) | ≥ 150
Cc1cncc(NC(=O)N2c3nc(N4CC[C@H](N(C)C)C4)ccc3N3CC[C@H]2C3)c1 [Example 243] | C (EC1.5>25 μM) | ≥ 150
CN(C)[C@H]1CCN(c2ccc3c(n2)N(C(=O)Nc2cncc(F)c2)[C@H]2CCN3C2)C1 [Example 244] | B (EC1.5 1-25 μM) | ≥ 150
Cc1cc(NC(=O)N2c3nc(N4CC[C@H](N(C)C)C4)ccc3N3CC[C@H]2C3)cc(C)n1 [Example 245] | B (EC1.5 1-25 μM) | ≥ 150
CN(C)[C@H]1CCN(c2ccc3c(n2)N(C(=O)Nc2cnccn2)[C@H]2CCN3C2)C1 [Example 246] | B (EC1.5 1-25 μM) | ≥ 150
CN(C)[C@H]1CCN(c2ccc3c(n2)N(C(=O)Nc2nccs2)[C@H]2CCN3C2)C1 [Example 247] | B (EC1.5 1-25 μM) | ≥ 150
O=C(Nc1ccncn1)N1c2nc(-c3cncc(Cl)c3)ccc2N2CC[C@H]1C2 [Example 249] | B (EC1.5 1-25 μM) | ≥ 150
COc1cc(NC(=O)N2c3nc(-c4cncc(Cl)c4)ccc3N3CC[C@H]2C3)ncn1 [Example 250] | A (EC1.5<1 μM) | ≥ 150
Cc1nc(NC(=O)N2c3nc(-c4cccc(N(C)C)c4)ccc3N3CCC[C@@H]2C3)sc1C [Example 252] | C (EC1.5>25 μM) | ≥ 150
O=C(Nc1ccccn1)N1c2nc(Cl)ccc2N2CC[C@H]1C2 [Example 258] | C (EC1.5>25 μM) | ≥ 150
O=C(Nc1cncc(F)c1)N1c2nc(Cl)ccc2N2CC[C@H]1C2 [Example 259] | B (EC1.5 1-25 μM) | ≥ 150
COc1ncc(-c2ccc3c(n2)N(C(=O)Nc2ccccn2)[C@H]2CCN3C2)c(OC)n1 [Example 263] | B (EC1.5 1-25 μM) | ≥ 150
CN(C)c1cccc(-c2ccc3c(n2)N(C(=O)Nc2cccc(-c4cnco4)c2)[C@@H]2CCCN3C2)c1 [Example 264] | A (EC1.5<1 μM) | ≥ 150
COc1cc(NC(=O)N2c3nc(-c4cccc(N(C)C)c4)ccc3N3CCC[C@@H]2C3)ncn1 [Example 265] | B (EC1.5 1-25 μM) | ≥ 150
O=C(Nc1cnccn1)N1c2nc(-c3cncc(Cl)c3)ccc2N2CC[C@H]1C2 [Example 275] | A (EC1.5<1 μM) | ≥ 150
O=C(Nc1ccncn1)N1c2nc(-c3cncc(C(F)(F)F)c3)ccc2N2CC[C@H]1C2 [Example 276] | A (EC1.5<1 μM) | ≥ 150
O=C(Nc1cnccn1)N1c2nc(-c3cncc(C(F)(F)F)c3)ccc2N2CC[C@H]1C2 [Example 278] | A (EC1.5<1 μM) | ≥ 150

Results, then the compound that gave them:

Tryp AVG EC1.5 (μM) | Emax [%] | SMILES
B (EC1.5 1-25 μM) | ≥ 150 | O=C(Nc1ccncn1)N1c2nc(-c3cccc(Cl)c3)ccc2N2CC[C@@H]1C2 [Example 234]
B (EC1.5 1-25 μM) | ≥ 150 | Cc1ccc(-c2ccc3c(n2)N(C(=O)Nc2ccc(F)cn2)[C@H]2CCN3C2)cn1 [Example 237]
A (EC1.5<1 μM) | ≥ 150 | O=C(Nc1cnccn1)N1c2nc(-c3cccc(N4CCC(F)(F)C4)c3)ccc2N2CC[C@H]1C2 [Example 239]
C (EC1.5>25 μM) | ≥ 150 | CN(C)c1cccc(-c2ccc3c(n2)N(C(=O)Nc2ccccn2)[C@@H]2CCCN3C2)c1 [Example 251]
C (EC1.5>25 μM) | < 150 | CN(C)c1cccc(-c2ccc3c(n2)N(C(=O)Nc2ccc(F)cn2)[C@@H]2CCCN3C2)c1 [Example 253]
A (EC1.5<1 μM) | ≥ 150 | O=C(Nc1ccccn1)N1c2nc(-c3cccc(N4CCC(F)(F)C4)c3)ccc2N2CC[C@H]1C2 [Example 254]
B (EC1.5 1-25 μM) | ≥ 150 | COc1cc(NC(=O)N2c3nc(-c4cccc(N5CC[C@H](F)C5)c4)ccc3N3CC[C@H]2C3)ncn1 [Example 255]
B (EC1.5 1-25 μM) | ≥ 150 | COc1cc(NC(=O)N2c3nc(-c4cccc(N5CCC(F)(F)C5)c4)ccc3N3CC[C@H]2C3)ncn1 [Example 256]
B (EC1.5 1-25 μM) | ≥ 150 | O=C(Nc1ccc(F)cn1)N1c2nc(-c3cccc(N4CCC(F)(F)C4)c3)ccc2N2CC[C@H]1C2 [Example 257]
A (EC1.5<1 μM) | ≥ 150 | O=C(Nc1ccccn1)N1c2nc(-c3cncc(Cl)c3)ccc2N2CC[C@H]1C2 [Example 260]
A (EC1.5<1 μM) | ≥ 150 | O=C(Nc1ccc(F)cn1)N1c2nc(-c3cncc(Cl)c3)ccc2N2CC[C@H]1C2 [Example 261]
B (EC1.5 1-25 μM) | ≥ 150 | O=C(Nc1ccccn1)N1c2nc(-c3ccc4c(c3)OC(F)(F)O4)ccc2N2CC[C@H]1C2 [Example 262]
B (EC1.5 1-25 μM) | ≥ 150 | CN(C)c1cccc(-c2ccc3c(n2)N(C(=O)Nc2cnccn2)[C@@H]2CCCN3C2)c1 [Example 266]
B (EC1.5 1-25 μM) | ≥ 150 | O=C(Nc1cnccn1)N1c2nc(-c3cccc(N4CC[C@@H](F)C4)c3)ccc2N2CC[C@H]1C2 [Example 267]
A (EC1.5<1 μM) | ≥ 150 | O=C(Nc1cnccn1)N1c2nc(-c3cccc(N4CC[C@H](F)C4)c3)ccc2N2CC[C@H]1C2 [Example 268]
B (EC1.5 1-25 μM) | ≥ 150 | O=C(Nc1ccc(F)cn1)N1c2nc(-c3cccc(N4CC[C@@H](F)C4)c3)ccc2N2CC[C@H]1C2 [Example 269]
B (EC1.5 1-25 μM) | ≥ 150 | O=C(Nc1ccc(F)cn1)N1c2nc(-c3cccc(N4CC[C@H](F)C4)c3)ccc2N2CC[C@H]1C2 [Example 270]
A (EC1.5<1 μM) | ≥ 150 | O=C(Nc1cncc(F)c1)N1c2nc(-c3cccc(N4CCC(F)(F)C4)c3)ccc2N2CC[C@H]1C2 [Example 271]
B (EC1.5 1-25 μM) | ≥ 150 | O=C(Nc1ccccn1)N1c2nc(-c3cccc(C(F)(F)F)c3)ccc2N2CCC[C@@H]1C2 [Example 272]
A (EC1.5<1 μM) | ≥ 150 | O=C(Nc1cncc(F)c1)N1c2nc(-c3cccc(C(F)(F)F)c3)ccc2N2CCC[C@@H]1C2 [Example 273]
A (EC1.5<1 μM) | ≥ 150 | COc1cc(NC(=O)N2c3nc(-c4cccc(C(F)(F)F)c4)ccc3N3CCC[C@@H]2C3)ncn1 [Example 274]
A (EC1.5<1 μM) | ≥ 150 | O=C(Nc1ccc(F)cn1)N1c2nc(-c3cncc(C(F)(F)F)c3)ccc2N2CC[C@H]1C2 [Example 277]
A (EC1.5<1 μM) | ≥ 150 | O=C(Nc1ccccn1)N1c2nc(-c3cccc(N4CC[C@@H](F)C4)c3)ccc2N2CC[C@H]1C2 [Example 279]
